These results are taken from patent US20190322676A1, “CERAMIDE GALACTOSYLTRANSFERASE INHIBITORS FOR THE TREATMENT OF DISEASE” (BioMarin Pharmaceutical Inc., priority 2016, published 2019).

pIC50: −log10 of the molar value. Counter-ions that a name gives are not always drawn.

For the experiment, the target named is T1, human CGT (ceramide galactosyltransferase), CHO/CGT lysate (Homo sapiens, UniProt Q16880).
T1 construct: Full-length human CGT cDNA was cloned into the BamH1/Xho1 site of pcDNA3.1 (+); expressed in transfected cells; host or cells: Chinese hamster ovary (CHO) cells; lysate prepared with M-PER
T1 sequence (Q16880 21-541): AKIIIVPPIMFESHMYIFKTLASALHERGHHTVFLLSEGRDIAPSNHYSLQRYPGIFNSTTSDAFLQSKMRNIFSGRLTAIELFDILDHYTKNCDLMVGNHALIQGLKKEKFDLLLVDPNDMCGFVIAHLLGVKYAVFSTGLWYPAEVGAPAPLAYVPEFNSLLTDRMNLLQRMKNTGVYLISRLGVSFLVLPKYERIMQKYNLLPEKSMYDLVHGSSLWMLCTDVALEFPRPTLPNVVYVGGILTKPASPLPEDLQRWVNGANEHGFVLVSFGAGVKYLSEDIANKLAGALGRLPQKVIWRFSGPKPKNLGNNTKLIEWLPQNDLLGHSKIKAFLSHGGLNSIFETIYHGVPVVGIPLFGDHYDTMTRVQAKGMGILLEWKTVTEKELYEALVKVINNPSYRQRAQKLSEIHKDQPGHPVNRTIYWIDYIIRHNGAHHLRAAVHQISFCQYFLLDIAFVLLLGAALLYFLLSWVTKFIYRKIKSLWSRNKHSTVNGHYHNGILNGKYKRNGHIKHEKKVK
In words: CGT enzyme assay, LC-MS/MS readout (Table 1 ranges without asterisk). The experiment is classed as biochemical. The conditions noted are these: LC-MS/MS method (range without asterisk). As to the method:
Full-length human CGT cDNA was cloned into the BamH1/Xho1 site of pcDNA3.1 (+) mammalian expression vector (V90-20, Invitrogen, Carlsbad, Calif.) and the plasmid was transfected into Chinese hamster ovary (CHO) cells. Lysate was prepared using M-PER (Mammalian Protein Extraction Reagent, ThermoFisher Scientific, Grand Island, N.Y.) in the presence of a protease inhibitor cocktail (P8340, Sigma, Saint Louis, Mo.). Each 100 mm dish (100% confluent, approximately 1×10^7 cells) was lysed with 250 μL of M-PER containing protease inhibitors. Protein concentration was determined using a Pierce BCA protein assay kit (ThermoFisher Scientific). Four micrograms of CHO/CGT lysate was incubated with various concentrations of a compound (0.001 μM-50 μM) in 10 mM HEPES (pH 7.2) containing 35 μM dioleoylphosphatidylcholine, 5 mM MgCl2, 5 mM MnCl2, 1% BSA, 15 mM KCl, 1 mM EGTA, 8 mM CHAPS, 10 μM C6-NBD-dihydro-ceramide and 17.5 μM UDP-galactose in a final reaction volume of 20 μL at 37° C. for 1 hour. The final concentration of DMSO was 0.5% in both compound-treated and mock-treated samples. Tween 80 (0.01%) was optionally added to the reaction mixture to help solubilize the compounds. Each individual reaction was diluted with 80 μL of methanol:acetronitrile (1:3) containing 5 μM N-docdecanoyl-NBD-galactosylceramide (internal standard) to stop the reaction. 200 μL H2O:acetonitile (1:1) was added to precipitate the protein. After sufficient mixing, the plates were centrifuged at 2469 g for 38 minutes, 200 μL of supernatant was transferred to a LC/MS 96-deep well plate and a second spin was performed at 2469 g for 10 minutes. The final supernatant was injected in triplicate for RapidFire/MS/MS analysis.
An alternative LC-MS/MS based method was also used. For the LC-MS/MS readout, the CGT assay was identical to the one described above except for the following: […] was used as the CGT enzyme source, C12:0 (2R—OH) ceramide was used as the ceramide substrate and 0.3 μM Cl2 ceramide was used as the internal standard. Tween 80 was not present in the reaction mixture. The final supernatant was injected for LC-MS/MS analysis.
Quantitative analysis using the LC-MS/MS method: The quantitative analysis of C12:0 (2R—OH) ceramide and C12:0 (2R—OH) galactosylceramide by LC-MS/MS was performed on a Shimadzu ultra-fast liquid chromatography (Shimadzu, Japan) coupled with API 4000 mass spectrometer (Applied Biosystems, Concord, Ontario, Canada). Analyst 1.5 software packages (Applied Biosystems) were used to control the LC-MS/MS system, as well as for data acquisition and processing. 10 μL of sample was loaded onto a Luna C18 column (50 mm×2.0 mm, I.D. 3 μm, 100A) (Phenomenex, USA) for chromatographic separation. Mobile phase A consisted of HPLC grade water with 0.1% formic acid (v/v) and mobile phase B consisted of acetonitrile supplemented with 0.1% formic acid (v/v). The separation was achieved using the following gradient program at a flow rate of 0.8 mL/min: the initial mobile phase was 70% B, which was increased in a linear fashion to 95% B in 1.50 min, and then maintained at 95% B until 3.50 min. The mobile phase was then reset to 70% B within 0.01 min, and maintained until 4.50 min. The total run time was 4.50 min. The MS/MS detection was performed in ESI positive mode. The mass transition selected for quantification was m/z 498.5-264.3 for C12:0 (2R—OH) ceramide under the collision energy of 38.8 V, and the mass transition of C12:0 (2R—OH) galactosylceramide was m/z 660.6-264.5 under the collision energy of 51 V. The mass transition of Cl2 ceramide which was used as internal standard was m/z 482.4-264.3 under the collision energy of 33V. Compound IC50 values were calculated using a protocol identical to the one described for the RapidFire method (see Table 1, where data ranges without an asterix correspond to analysis using the LC-MS/MS method).
Using the above CGT enzyme and CGT cellular assays, the compounds of Table 1 were tested. […]
Take `NC1CC2CCC(C1)N2C(=O)[C@H](NS(=O)(=O)c1ccc(Oc2ccc(Cl)cn2)cc1)C(F)(F)c1ccc(Br)cc1` (stereo partly drawn) [Compound 18-2, N-((2S)-3-(3-amino-8-azabicyclo[3.2.1]octan-8-yl)-1-(4-bromophenyl)-1,1-difluoro-3-oxopropan-2-yl)-4-((5-chloropyridin-2-yl)oxy) benzenesulfonamide trifluoroacetate]: the negative logarithm of the IC50 (pIC50) is 4.00 to 4.52.

`CC(C)Oc1ccc2cc([C@H](O)C(=O)N[C@H](C(=O)N3C4CCC3CC(N)C4)C(F)(F)c3ccc(Br)cc3)ccc2c1` (stereo partly drawn) [Compound 19-3, (2S)—N-((2R)-3-(3-amino-8-azabicyclo[3.2.1]octan-8-yl)-1-(4-bromophenyl)-1,1-difluoro-3-oxopropan-2-yl)-2-hydroxy-2-(6-isopropoxynaphthalen-2-yl)acetamide trifluoroacetate] gave a negative logarithm of the IC50 (pIC50) of 5.00 to 6.00. Consider `CC(C)Oc1ccc2cc([C@@H](O)C(=O)N[C@H](C(=O)N3C4CCC3CC(N)C4)C(F)(F)c3ccc(Br)cc3)ccc2c1` (stereo partly drawn) [Compound 19-5, (2R)—N-((2R)-3-(3-amino-8-azabicyclo[3.2.1]octan-8-yl)-1-(4-bromophenyl)-1,1-difluoro-3-oxopropan-2-yl)-2-hydroxy-2-(6-isopropoxynaphthalen-2-yl)acetamide trifluoroacetate], for which the negative-log IC50 (pIC50) is 4.52 to 5.00. Regarding `CC(C)Oc1ccc2cc([C@H](O)C(=O)N[C@@H](C(=O)N3C4CCC3CC(N)C4)C(F)(F)c3ccc(Br)cc3)ccc2c1` (stereo partly drawn) [Compound 19-6, (2S)—N-((2S)-3-(3-amino-8-azabicyclo[3.2.1]octan-8-yl)-1-(4-bromophenyl)-1,1-difluoro-3-oxopropan-2-yl)-2-hydroxy-2-(6-isopropoxynaphthalen-2-yl)acetamide trifluoroacetate], the negative logarithm of the IC50 (pIC50) is 4.00 to 4.52. The value for `NC1CC2CCC(C1)N2C(=O)[C@@H](NS(=O)(=O)c1ccc(OCC2CCCC2)cc1)C(F)(F)c1ccc(Br)cc1` (stereo partly drawn) [Compound 20-1, N-((2R)-3-(3-amino-8-azabicyclo[3.2.1]octan-8-yl)-1-(4-bromophenyl)-1,1-difluoro-3-oxopropan-2-yl)-4-(cyclopentylmethoxy)benzenesulfonamide trifluoroacetate] was 5.00 to 6.00; that for `NC1CC2CCC(C1)N2C(=O)[C@H](NS(=O)(=O)c1ccc(OCC2CCCC2)cc1)C(F)(F)c1ccc(Br)cc1` (stereo partly drawn) [Compound 20-2, N-((2S)-3-(3-amino-8-azabicyclo[3.2.1]octan-8-yl)-1-(4-bromophenyl)-1,1-difluoro-3-oxopropan-2-yl)-4-(cyclopentylmethoxy) benzenesulfonamide trifluoroacetate] was 4.52 to 5.00. The compound `CC(C)Oc1ccc2cc(S(=O)(=O)N[C@H](C(=O)N3C4CCC3CC(N(C)C)C4)C(F)(F)c3ccc(Br)cc3)ccc2c1` (stereo partly drawn) [Compound 21-1, N-((2R)-1-(4-bromophenyl)-3-(3-(dimethylamino)-8-azabicyclo[3.2.1]octan-8-yl)-1,1-difluoro-3-oxopropan-2-yl)-6-isopropoxynaphthalene-2-sulfonamide] showed a pIC50 of 4.52 to 5.00. Next, `CC(C)Oc1ccc2cc(S(=O)(=O)N[C@@H](C(=O)N3C4CCC3CC(N(C)C)C4)C(F)(F)c3ccc(Br)cc3)ccc2c1` (stereo partly drawn) [Compound 21-2, N-((2S)-1-(4-bromophenyl)-3-(3-(dimethylamino)-8-azabicyclo[3.2.1]octan-8-yl)-1,1-difluoro-3-oxopropan-2-yl)-6-isopropoxy naphthalene-2-sulfonamide]: 4.00 to 4.52. Regarding `CCCCOc1ccc(S(=O)(=O)N[C@H](C(=O)N2C3CCC2CC(N)C3)C(F)(F)c2ccc(Br)cc2)cc1` (stereo partly drawn) [Compound 22-1, N-((2R)-3-(3-amino-8-azabicyclo[3.2.1]octan-8-yl)-1-(4-bromophenyl)-1,1-difluoro-3-oxopropan-2-yl)-4-butoxybenzenesulfonamide], the pIC50 was 5.00 to 6.00. `CCCCOc1ccc(S(=O)(=O)N[C@@H](C(=O)N2C3CCC2CC(N)C3)C(F)(F)c2ccc(Br)cc2)cc1` (stereo partly drawn) [Compound 22-2, N-((2S)-3-(3-amino-8-azabicyclo[3.2.1]octan-8-yl)-1-(4-bromophenyl)-1,1-difluoro-3-oxopropan-2-yl)-4-butoxybenzenesulfonamide] showed a negative logarithm of the IC50 (pIC50) of 4.00 to 4.52. Compound `CCCCCCOc1ccc(S(=O)(=O)N[C@H](C(=O)N2C3CCC2CC(N)C3)C(F)(F)c2ccc(Br)cc2)cc1` (stereo partly drawn) [Compound 23-1, N-((2R)-3-(3-amino-8-azabicyclo[3.2.1]octan-8-yl)-1-(4-bromophenyl)-1,1-difluoro-3-oxopropan-2-yl)-4-(hexyloxy)benzenesulfonamide] had a pIC50 of 5.00 to 6.00. The compound `CCCCCCOc1ccc(S(=O)(=O)N[C@@H](C(=O)N2C3CCC2CC(N)C3)C(F)(F)c2ccc(Br)cc2)cc1` (stereo partly drawn) [Compound 23-2, N-((2S)-3-(3-amino-8-azabicyclo[3.2.1]octan-8-yl)-1-(4-bromophenyl)-1,1-difluoro-3-oxopropan-2-yl)-4-(hexyloxy)benzenesulfonamide] gave a pIC50 of 4.00 to 4.52. The value for `NC1CC2CCC(C1)N2C(=O)[C@@H](NS(=O)(=O)c1ccc2cc(OCc3ccccc3)ccc2c1)C(F)(F)c1ccc(Br)cc1` (stereo partly drawn) [Compound 24-1, N-((2R)-3-(3-amino-8-azabicyclo[3.2.1]octan-8-yl)-1-(4-bromophenyl)-1,1-difluoro-3-oxopropan-2-yl)-6-(benzyloxy)naphthalene-2-sulfonamide] was 5.00 to 6.00; that for `NC1CC2CCC(C1)N2C(=O)[C@H](NS(=O)(=O)c1ccc2cc(OCc3ccccc3)ccc2c1)C(F)(F)c1ccc(Br)cc1` (stereo partly drawn) [Compound 24-2, N-((2S)-3-(3-amino-8-azabicyclo[3.2.1]octan-8-yl)-1-(4-bromophenyl)-1,1-difluoro-3-oxopropan-2-yl)-6-(benzyloxy)naphthalene-2-sulfonamide] was 4.00 to 4.52. Compound `NC1CC2CCC(C1)N2C(=O)[C@@H](NS(=O)(=O)c1ccc(Oc2ccc(F)cc2)cc1)C(F)(F)c1ccc(Br)cc1` (stereo partly drawn) [Compound 25-1, N-((2R)-3-(3-amino-8-azabicyclo[3.2.1]octan-8-yl)-1-(4-bromophenyl)-1,1-difluoro-3-oxopropan-2-yl)-4-(4-fluorophenoxy)benzenesulfonamide trifluoroacetate] gave a pIC50 of 5.00 to 6.00. Next, `NC1CC2CCC(C1)N2C(=O)[C@H](NS(=O)(=O)c1ccc(Oc2ccc(F)cc2)cc1)C(F)(F)c1ccc(Br)cc1` (stereo partly drawn) [Compound 25-2, N-((2S)-3-(3-amino-8-azabicyclo[3.2.1]octan-8-yl)-1-(4-bromophenyl)-1,1-difluoro-3-oxopropan-2-yl)-4-(4-fluorophenoxy) benzenesulfonamide trifluoroacetate]: 4.00 to 4.52.
